Common to all, as to format: cell-based
One test has as its system S. aureus. As for the experimental part: (§1) In more detail, the filtrates (≈3.5 mg of protein by BCA) were concentrated to 2 ml by vacuum centrifugation in a Speed Vac Concentrator (Savant Instruments, Hicksville, N.Y.). Gel permeation chromatography was performed on a 1.2×65 cm BioGel P-10 gel permeation column with 5% acetic acid. Preparative continuous acid-urea PAGE electrophoresis was performed as described by Harwig, S. S. L. et al., Anal Biochem (1993) 208:382. Active fractions were pooled and purified by RP-HPLC a 4.6×250 mm Vydac C18 column, using various linear gradients of acetonitrile in 0.1% trifluoroacetic acid (TFA) or 0.13% heptafluorobutyric acid (HFBA). Throughout this multistep procedure, fractions were lyophilized, concentrated and tested for antimicrobial activity against Listeria monocytogenes strain EGD by a radial diffusion technique described in Lehrer, R. I. et al., J Immunol Methods (1991) 137:167. In these assays, the underlay gels contained 9 mM sodium phosphate and 1 mM sodium citrate buffer, 0.30 mg/ml of trypticase soy broth powder (BBL, Cockeysville, Md.) and 1% agarose at a final pH of 6.5.
(§2) Clavanin E(2-23) was tested in the standard underlay assay described in Example 1 herein wherein the underlay contained 10 mM sodium phosphate buffer, pH 7.4 and 1:100 trypticase soy broth with and without 200 mM NaCl. The known antimicrobials cecropin A, cecropin B, and cecropin P1 were used as controls.
(§3) The standard underlay assay was again conducted supplying both E(3-23) and PG-1 to the underlay. In these assays, the underlay contained in addition to 1% agarose, 10 mM sodium phosphate buffer, pH 7.4, 1:100 trypticase soy broth and 200 mM NaCl. The underlays contain PG-1 alone, E(3-23) alone, or combinations of E(3-23) and PG-1.
(§4) Finally, the activity of Clavanins A and E as well as E(3-23) and E(6-23) was tested against various target organisms at two pHs with and without salt.

For a further test, the system named is Burkaholderia cepacia. The procedure:
as §1, §2, §3

In another test the test system is E. coli. As to the kind of experiment: minimal bacteriocidal concentrations under various conditions. More on the design: unit not given here. The note with it: pH 5.5. As for the experimental part:
(§5) The Tables below show the minimal bacteriocidal concentrations of PG-1, histatin 5, and Clavanin E(3-23) against various organisms under various conditions. E(3-23) was active over a broad pH range and, unlike hisatin 5, it retained activity in the presence of physiological sodium chloride concentrations.
(§6) Low salt conditions (10 mM phosphate)
(§7) High salt conditions (10 mM phosphate+100 mM NaCl)

Test [1] relates to P. aeruginosa. The description is as above. Also on record: unit not given here. The note with it: pH 5.5. As for the experimental part:
as §5, §6, §7

Another test has as its system L. monocytogenes. The description is as above. The note with it: pH 5.5. The procedure:
as §5, §6, §7

In a further test the test system is C. albicans. Put plainly: minimal bacteriocidal concentrations and activity under various conditions. The conditions noted are these: pH 5.5. As for the experimental part: as §4, §5, §6, §7
In a further test the test system is L. monocytogenes EGD. Put plainly: radial diffusion assay. The conditions noted are these: for potency relative to Clavanins A and B: L. monocytogenes Strain EGD, radial diffusion (FIG. 5). The procedure:
as §1
(§8) In addition to Cecropin P1 and Magainin 1, the activity of Clavanin A(K) was also tested. Clavanin A(K) is identical to Clavanin A except that all of the histidine residues are replaced by lysine. […] The data are provided as minimal bacteriocidal concentrations expressed in μg/ml which are the X-intercepts of radial diffusion assays performed at pH 6.5 in an underlay that contained 10 mM buffer (9:1 citrate:phosphate), 1% agarose and 0.3 mg trypticase soy powder/ml.
The effect of pH on antimicrobial activity against several organisms was tested in a pH range wherein histidine becomes comparably charged to lysine. FIGS. 6-8 show the results for native or synthetic Clavanin A and synthetic Clavanin A(K) using defensin NP-2 as a control, with respect to L. monocytogenes, E. coli, and C. albicans respectively. The radial diffusion assays were conducted as described in Examples 1 and 3 above.

In a further test the test system is E. coli ML-35P. As to the kind of experiment: radial diffusion assay. The conditions noted are these: radial diffusion (FIG. 5). As for the experimental part:
as §1, §8

In the next test the test system is E. faecium. As to the kind of experiment: radial diffusion assay. The conditions noted are these: X-intercept of radial diffusion assay, pH 6.5. The procedure: as §1, §8
Test [2] concerns P. aeruginosa. Put plainly: standard underlay assay. More on the design: dose or concentration left out as unconfirmed. The conditions noted are these: pH 7.4. The procedure: as §1
[…] The known antimicrobials cecropin A, cecropin B, and cecropin P1 were used as controls.
The standard underlay assay was again conducted supplying both E(3-23) and PG-1 to the underlay. […]

Test [3] has as its system E. coli, L. monocytogenes, P. aeruginosa, S. areus and C. albicans. Put plainly: activity against various target organisms at two pHs with and without salt. The note with it: pH 5.5, 200 mM sodium chloride; most organisms (FIG. 13B). As for the experimental part:
as §4

Where [4] appears, read: high salt (10 mM phosphate+100 mM NaCl).

Starred links: 1 amine or outer side, 2 acyl side, 3 side chain; linkers in the order of their positions; H or OH if unused. Non-standard residues stand in square brackets, D forms with d. No end group written: not given here. Tyr(Me) = O-methyl tyrosine, COc1ccc(C[C@H](N[*:1])C(=O)[*:2])cc1 Some results are limits rather than exact numbers.

Take `CC(C)C[C@H](NC(=O)[C@H](CCCNC(=N)N)NC(=O)CNC(=O)CNC(=O)[C@@H](N)CCCNC(=N)N)C(=O)N[C@H]1CSSC[C@@H](C(=O)N[C@H](C(=O)NCC(=O)N[C@@H](CCCNC(=N)N)C(N)=O)C(C)C)NC(=O)[C@H](C(C)C)NC(=O)[C@@H]2CSSC[C@H](NC(=O)[C@H](Cc3ccc(O)cc3)NC1=O)C(=O)N[C@@H](CCCNC(=N)N)C(=O)N[C@@H](CCCNC(=N)N)C(=O)N[C@@H](CCCNC(=N)N)C(=O)N[C@@H](Cc1ccccc1)C(=O)N2` [PG-1]: the “MBC for PG-1 in the presence of E(3-23)” value in the test on S. aureus (pH 7.4) worked out at 0.07 µg/mL. Further, in the test on S. aureus (pH 7.4), the “minimum bacterial concentration (MBC), agent alone” value is “approximately 0.9 μg/ml”. The “effect of E(3-23) on MBC for PG-1” value with Burkaholderia cepacia (B. cepacia, pH 7.4, 200 mM NaCl, 1 μg/ml E(3-23) present) was “did not effect MBC”. Further, the minimal bacteriocidal concentration in the test with E. coli (setting [4]) was determined as 0.04; with E. coli (low salt (10 mM phosphate)), 0.05; in the test with P. aeruginosa [1] (setting [4]), 0.20; in the test on P. aeruginosa [1] (low salt (10 mM phosphate)), 0.20; with L. monocytogenes (setting [4]), 0.10; in the test on L. monocytogenes (low salt (10 mM phosphate)), 0.10. Further, the minimal bacteriocidal concentration turned out to be 0.10 with C. albicans (setting [4]) and 0.06 with C. albicans (low salt (10 mM phosphate)).
As for “AFKLL GRIIH HVGNF VY' GFS HVF* (AFKLLGRIIHHVGNFV[Tyr(Me)]GFSHVF-NH2; also: C-terminal modification (*)) [Clavanin D, Y' is o-methyl tyrosine]”, the “potency relative to Clavanins A and B” value in the test with L. monocytogenes EGD and in the test with E. coli ML-35P was 3-5 fold each time.
Cecropin P1: in the test on E. faecium, the minimal bacteriocidal concentration came to 6.5 µg/mL. Besides, the “activity, E(3-23) and cecropins compared” value in the test with P. aeruginosa [2] was “slightly more active than E(3-23)”.
On to “KLLGKIIHHVGNFVHGFSHVF-NH2 [Clavanin E(3-23), KLL GKIIH HVGNF VHGFS HVF*]”, for which, in the test with S. aureus (pH 7.4), the “MBC of E(3-23) in the presence of PG-1” value amounted to 2.5 µg/mL and the “minimum bacterial concentration (MBC), agent alone” value came out at 7.5 µg/mL. Besides, in the test with Burkaholderia cepacia (pH 7.4), the “MBC of E(3-23) with PG-1 incorporated” value came out at 2.5 µg/mL and the “MBC, agent alone” value worked out at 7.5 µg/mL.
“LFKLLGKIIHHVGNFVHGFSHVF (LFKLLGKIIHHVGNFVHGFSHVF) [Clavanin E]”: the “effect of salt on activity” value in the test with S. aureus (S. aureus, pH 5.5, 200 mM sodium chloride (FIG. 13B)) is reported as “maintained its activity”; in test [3] it was “better maintained”.
Turning to “VFHLL GKIIH HVGNF VY' GFS HVF* [Clavanin C, Y' is o-methyl tyrosine]”, the “potency relative to Clavanins A and B” value in the test on L. monocytogenes EGD and in the test with E. coli ML-35P was 3-5 fold each time.
For “cecropin A (KWKLFKKIEKVGQNIRDGIIKAGPAVAVVGQATQIAK; ends and bridges not checked; UniProt P01507 27-63, looked up) [known antimicrobial used as control]”, in the test with P. aeruginosa [2], the “activity, E(3-23) and cecropins compared” value is recorded as “slightly more active than E(3-23)”.
defensin NP-2: in the test with L. monocytogenes EGD (L. monocytogenes, radial diffusion, pH 5.5, 6.5, 7.5 (FIG. 6)), the “effect of pH of the assay on activity” value is recorded as “no effect”.
In the case of histatin 5 [Hs-5], the minimal bacteriocidal concentration is 60.6 in the test on E. coli (setting [4]); 1.1 with E. coli (low salt (10 mM phosphate)); above 500 in the test on P. aeruginosa [1] (setting [4]); 2.2 with P. aeruginosa [1] (low salt (10 mM phosphate)); above 500 with L. monocytogenes (setting [4]); 11.8 with L. monocytogenes (low salt (10 mM phosphate)). Besides, the minimal bacteriocidal concentration with C. albicans (setting [4]) is listed as above 500; in the test on C. albicans (low salt (10 mM phosphate)) it was 7.2.
